Source: patent publication EP0241395A2, “Sweeteners derived from n-phenylguanidinoacetic and n-phenylethananamidinacetic acids, and compositions containing such sweeteners” (UNIVERSITE CLAUDE BERNARD - LYON 1, priority 1986, dated 1987)

Tested on: groupe de huit goûteurs expérimentés
Assay: Sweetening power judged by a panel of eight experienced tasters against a sucrose reference solution
Assay type: in vivo
Settings: weight basis; for Pouvoir édulcorant: Table II, relative to a 2 % sucrose solution; for pouvoir édulcorant, sur une base pondérale: approximate
Source text: Le pouvoir édulcorant des composés préparés dans les exemples suivants a été évalué par un groupe de huit goûteurs expérimentés. Pour cela, les composés, en solution aqueuse à des concentrations variables, sont comparés, sur le plan gustatif, à une solution témoin de saccharose à 2 % et dans certains cas à 5 % et 10 %, c'est-à-dire à des concentrations correspondant à celles utilisées lors d'un usage courant. Le pouvoir sucrant des édulcorants de synthèse varie en effet suivant la concentration de la solution de saccharose utilisée comme référence. Le pouvoir édulcorant du composé testé par rapport au saccharose correspond alors au rapport pondéral qui existe entre le composé et le saccharose à égale intensité édulcorante, c'est-à-dire quand les saveurs sucrées de la solution du composé testé et de la solution témoin de saccharose sont considérées, par une majorité de goûteurs, avoir la même intensité édulcorante.

[1] = by comparison with a 2 % sucrose solution
[2] = by comparison with a 5 % sucrose solution
[3] = by comparison with a 10 % sucrose solution

Row | SMILES | Pouvoir édulcorant | pouvoir édulcorant, sur une base pondérale [1] | pouvoir édulcorant, sur une base pondérale [2] | pouvoir édulcorant, sur une base pondérale [3]
1 | CC(C)N(C)C(=Nc1ccc(C#N)cc1)NCC(=O)O [Exemple 32, acide N-[N-méthyl-N-1-méthyléthyl-amino(4-cyanophénylimino)méthyl]-2-aminoéthanoïque] | 80 | ~80 fois celui du saccharose |  | 
2 | C[C@H](NC(=Nc1cc(Cl)cc(Cl)c1)NCC(=O)O)c1ccccc1 [Exemple 26, acide N-[N-(S)-α-méthylbenzylamino (3,5-dichlorophénylimino)méthyl]-2-aminoéthanoïque] | 120000 | ~120 000 fois celui du saccharose | ~90 000 fois celui du saccharose | ~50 000 fois celui du saccharose
3 | O=C(O)CNC(=NS(=O)(=O)c1ccccc1)Nc1cccc(Cl)c1 [Exemple 79, acide N-[phénylsulfonylimino (3-chlorophénylamino)méthyl]-2-aminoéthanoique] | 17000 | ~17 000 fois celui du saccharose |  | 
4 | O=C(O)CNC(=Nc1cc(Cl)cc(Cl)c1)NCC1CCCCC1 [Exemple 57, acide N-[N-cyclohexylméthylamino (3,5-dichlorophénylimino)méthyl]-2-aminoéthanoïque] | 35000 | ~35 000 fois celui du saccharose |  | 
5 | N#Cc1ccc(NC(=NC2CCCCCCC2)NCC(=O)O)cc1 [Exemple 47, acide N-[N-cyclooctylamino-(4-cyanophénylimino)méthyl]-2-aminoéthanoïque] | 170000 | ~170 000 fois celui du saccharose | ~130 000 fois celui du saccharose | ~100 000 fois celui du saccharose
6 | N#Cc1ccc(N=C(NCC(=O)O)NC2CCCCC2)cc1 [Exemple 43, acide N-[N-cyclohexylamino(4-cyanophénylimino)méthyl]-2-aminoéthanoïque] | 12000 | ~12 000 fois celui du saccharose | ~10 500 fois celui du saccharose | ~8 500 fois celui du saccharose
7 | N#Cc1ccc(N=C(NCC(=O)O)NCc2ccccc2)cc1 [Exemple 52, acide N-[N-benzylamino(4-cyanophénylimino)méthyl]-2-aminoéthanoïque] | 30000 | ~30 000 fois celui du saccharose | ~27 000 fois celui du saccharose | ~22 000 fois celui du saccharose
8 | N#Cc1ccc(N=C(NCC(=O)O)Nc2cccc(Cl)c2)cc1 [Exemple 80, acide N-[N-(3-chlorophényl)amino(4-cyanophénylimino)méthyl]-2-aminoéthanoïque] | 10000 |  |  | 
9 | C[C@H](N=C(NCC(=O)O)Nc1ccc(F)cc1)c1ccccc1 [Exemple 17, acide N-[N-(S)-α-méthylbenzylamine (4-fluorophénylimino)méthyl]-2-aminoéthanoïque] | 4000 | ~4 000 fois celui du saccharose |  | 
10 | C[C@H](NC(=Nc1ccc(Cl)c(Cl)c1)NCC(=O)O)c1ccccc1 [Exemple 23, acide N-[N-(S) -α-méthylbenzylamino (3,4-dichlorophénylimino)méthyl]-2-aminoéthanoïque] | 17000 | ~17 000 fois celui du saccharose |  | 
11 | COc1cc(NC(=N[C@@H](C)c2ccccc2)NCC(=O)O)cc(C(F)(F)F)c1 [Exemple 24, acide N-[N-(S)-α-méthylbenzylamino (3-trifluorométhyl-5-méthoxyphénylimino)méthyl]-2-amino-éthanoïque] | 7000 | ~7 000 fois celui du saccharose |  | 
12 | C[C@@H](NC(=Nc1ccc(C#N)cc1)NC1CCCCC1)C(=O)O [Exemple 85, acide (R)-N-[N-cyclohexylamino (4-cyanophénylimino)méthyl]-2-aminopropanoïque] | 100 | ~100 fois celui du saccharose |  | 
13 | N#Cc1ccc(N=C(NCC(=O)O)N2CCCC2)cc1 [Exemple 82, acide N-[N,N-(tétraméthylène)amino (4-cyanophénylimino)méthyl]-2-aminoéthanoïque] | 100 | ~100 fois celui du saccharose |  | 
14 | O=C(O)CNC(=Nc1ccc(Cl)cc1)NCC1CCCCC1 [Exemple 58, acide N-[N-cyclohexylméthylamino(4-chlorophénylimino)méthyl]-2-aminoéthanoïque] | 3500 | ~3 500 fois celui du saccharose | ~2 700 fois celui du saccharose | ~1 500 fois celui du saccharose
15 | C[C@H](NC(=Nc1cc(Cl)cc(Cl)c1)NCC(=O)O)C1CCCCC1 [Exemple 63, acide N-[N-(S)-l-cyclohexyléthylamino(3,5-dichlorophénylimino)méthyl]-2-aminoéthanoïque] | 70000 | ~70 000 fois celui du saccharose |  | 
16 | N#Cc1ccc(N=C(NCC(=O)O)NC2CCc3ccccc32)cc1 (centres unmarked) [Exemple 70, acide N-[N-(1-indanyl)amino(4-cyanophénylimino)méthyl]-2-aminoéthanoïque] | 5000 | ~5 000 fois celui du saccharose |  | 
17 | COc1cccc(N=C(NCC(=O)O)N[C@@H](C)c2ccccc2)c1 [Exemple 9, acide N-[N-(S)-ot-méthylbenzylamino (3-méthoxyphénylimino)méthyl]-2-aminoéthanoïque] | 4 500 | ~4 500 fois celui du saccharose |  | 
18 | CSc1cccc(N=C(NCC(=O)O)N[C@@H](C)c2ccccc2)c1 [Exemple 10, acide N-[N-(S)-a-méthylbenzylamino (3-méthylmercaptophénylimino)méthyl]-2-aminoéthanoïque] | 5 500 | ~5 500 fois celui du saccharose |  | 
19 | N#Cc1ccc(N=C(NCC(=O)O)NC23CC4CC(CC(C4)C2)C3)cc1 [Exemple 71, acide N-[N-(1-adamantyl)amino(4-cyanophénylimine)méthyl]-2-8minoéthanoique] | 3 500 | ~3 500 fois celui du saccharose |  | 
20 | N#Cc1ccc(N=C(NCC(=O)O)NC2CCCCCC2)cc1 [Exemple 45, acide N-[N-cycloheptylamino(4-cyanophénylimino)méthyl]-2-aminoéthanoïque] | 60000 | ~60 000 fois celui du saccharose |  | 
21 | CCN(Cc1ccccc1)C(=Nc1ccc(C#N)cc1)NCC(=O)O [Exemple 34, acide N-[N-éthyl-N-benzylamino (4-cyanophénylimino)méthyl]-2-aminoéthanoïque] | 3000 | ~3 000 fois celui du saccharose |  | 
22 | C[C@H](NC(=Nc1ccc(Cl)cc1)NCC(=O)O)c1ccccc1 [Exemple 13, acide N-[N-(S)-α-méthylbenzylamino (4-chlorophénylimino)méthyl]-2-aminoéthanoïque] | 3000 | ~3 000 fois celui du saccharose |  | 
